In US9801880B2, “Use of kinase inhibitors” (BerGenBio AS, priority 2013, dated 2017) one finds IC50 and Kd data, which are given here for 1 molecule.

Test [1] concerns the target T1, Abl(H396P) (Homo sapiens, UniProt P00519, H396P). Description: KinaseProfiler kinase activity assay. The class given is biochemical. Also on record: purchased EMD Millipore Corp. (KinaseProfiler service). Particulars: ATP at Km. An excerpt:
(§1) Detailed assay methodologies can be found in the relevant references cited herein, or in the KinaseProfiler Service Assay Protocols (v54, 2011) available from EMD Millipore (www.emdmillipore.com), or from the KinomeScan website (www.kinomescan.com), as appropriate. (For a more detailed description of KINOMEscan's assay technology, see: Fabian et al. A small molecule-kinase interaction map for clinical kinase inhibitors. Nat. Biotechnol. 23, 329-336 (2005)). A summary is provided below.
(§2) KinaseProfiler™ assays (EMD Millipore Corp. Billerica, Mass., USA) are […] with purified or partially-purified human kinases. Most of the KinaseProfiler™ assays are conducted in 20 mM MOPS, 1 mM EDTA, 0.01% Brij-35, 5% Glycerol, 0.1% b-mercaptoethanol, 1 mg/mL BSA. The assay involves the transfer of ^32P from γ-^32P-ATP to the target peptide, followed by washing and trapping of the labeled peptide on a filter. The concentration of γ-^32P-ATP used was at the established Km for ATP.

In test [2] the target is Tyro3 (Homo sapiens, UniProt Q06418). Description: KinaseProfiler kinase activity assay. Also on record: purchased EMD Millipore Corp. (KinaseProfiler service). The class given is biochemical. Particulars: ATP at Km.
Excerpt: as §1, §2

The target of test [3] is T2, Abl(Q252H) (Homo sapiens, UniProt P00519, Q252H). Description: KinaseProfiler kinase activity assay. Particulars: ATP at Km. Format: biochemical. On the set-up: purchased EMD Millipore Corp. (KinaseProfiler service).
Excerpt: as §1, §2

For test [4], the target named is T3, Abl (T315I) (Homo sapiens, UniProt P00519, T315I). Description: KinaseProfiler kinase activity assay. The class given is biochemical. Also on record: purchased EMD Millipore Corp. (KinaseProfiler service). Particulars: ATP at Km.
Excerpt: as §1, §2

Test [5] deals with T4, Abl(M351T) (Homo sapiens, UniProt P00519, M351T). Kind of test: KinaseProfiler kinase activity assay. On the set-up: purchased EMD Millipore Corp. (KinaseProfiler service). The class given is biochemical. Particulars: ATP at Km.
Excerpt: as §1, §2

Test [6] concerns the target T5, Abl(Y253F) (Homo sapiens, UniProt P00519, Y253F). Description: KinaseProfiler kinase activity assay. Format: biochemical. On the set-up: purchased EMD Millipore Corp. (KinaseProfiler service). Particulars: ATP at Km.
Excerpt: as §1, §2

Test [7] addresses T1, Abl(H396P). Description: KinomeScan competition binding assay. Also on record: purchased DiscoveRx Corporation (KinomeScan service).
Excerpt: as §1
(§3) KinomeScan™ assays (DiscoveRx Corporation, San Diego, Calif., USA) are active-site-directed competition binding assays. […] The amount of kinase captured in test versus control samples is determined by using a qPCR method that detects the associated DNA label on each kinase molecule. Dissociation constants (Kd) for test compound-kinase interactions are calculated by measuring the amount of kinase captured on the solid support as a function of the test compound concentration.

Test [8] addresses Flt3 (Homo sapiens, UniProt P36888). Kind of test: KinomeScan competition binding assay. On the set-up: purchased DiscoveRx Corporation (KinomeScan service). Particulars: Flt3 wild-type.
Excerpt: as §1, §3

Test [9] concerns the target Flt4 (Homo sapiens, UniProt P35916). Kind of test: KinomeScan competition binding assay. On the set-up: purchased DiscoveRx Corporation (KinomeScan service).
Excerpt: as §1, §3

The target in test [10] is Flt3 (D835Y) (Homo sapiens, UniProt P36888, D835Y). Kind of test: KinomeScan competition binding assay. On the set-up: purchased DiscoveRx Corporation (KinomeScan service).
Excerpt: as §1, §3

Test [11] deals with c-Kit (D816V) (Homo sapiens, UniProt P10721, D816V). Kind of test: KinomeScan competition binding assay. Also on record: purchased DiscoveRx Corporation (KinomeScan service).
c-Kit (D816V), sequence (P10721 26-976 D816V): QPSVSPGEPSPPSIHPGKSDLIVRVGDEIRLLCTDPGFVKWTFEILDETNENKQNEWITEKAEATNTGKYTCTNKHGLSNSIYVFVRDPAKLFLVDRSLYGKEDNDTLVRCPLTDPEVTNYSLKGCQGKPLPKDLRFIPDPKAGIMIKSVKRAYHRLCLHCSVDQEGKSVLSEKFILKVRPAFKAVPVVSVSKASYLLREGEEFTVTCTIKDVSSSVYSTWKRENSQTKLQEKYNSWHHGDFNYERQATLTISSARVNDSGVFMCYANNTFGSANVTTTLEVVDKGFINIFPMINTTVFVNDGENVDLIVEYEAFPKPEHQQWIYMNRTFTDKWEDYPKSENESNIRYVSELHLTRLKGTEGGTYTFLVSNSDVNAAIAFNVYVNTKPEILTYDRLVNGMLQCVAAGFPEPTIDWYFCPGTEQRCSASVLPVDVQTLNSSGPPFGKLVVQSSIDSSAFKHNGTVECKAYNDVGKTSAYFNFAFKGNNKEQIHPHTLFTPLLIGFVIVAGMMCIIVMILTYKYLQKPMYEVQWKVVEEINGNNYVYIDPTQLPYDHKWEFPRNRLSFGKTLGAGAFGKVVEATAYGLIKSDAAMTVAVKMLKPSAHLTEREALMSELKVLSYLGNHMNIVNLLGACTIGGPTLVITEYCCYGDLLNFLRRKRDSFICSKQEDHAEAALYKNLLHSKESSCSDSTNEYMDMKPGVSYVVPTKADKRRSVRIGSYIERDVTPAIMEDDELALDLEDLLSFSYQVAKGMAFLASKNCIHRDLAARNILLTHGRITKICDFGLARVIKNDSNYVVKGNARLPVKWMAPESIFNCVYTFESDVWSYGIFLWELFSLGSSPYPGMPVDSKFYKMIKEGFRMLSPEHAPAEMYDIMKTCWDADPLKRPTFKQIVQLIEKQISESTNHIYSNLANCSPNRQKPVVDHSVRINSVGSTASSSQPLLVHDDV
Excerpt: as §1, §3

For test [12], the target named is Ret (V804L) (Homo sapiens, UniProt P07949, V804L). Kind of test: KinomeScan competition binding assay. On the set-up: purchased DiscoveRx Corporation (KinomeScan service).
Ret (V804L), sequence (P07949 29-1114 V804L): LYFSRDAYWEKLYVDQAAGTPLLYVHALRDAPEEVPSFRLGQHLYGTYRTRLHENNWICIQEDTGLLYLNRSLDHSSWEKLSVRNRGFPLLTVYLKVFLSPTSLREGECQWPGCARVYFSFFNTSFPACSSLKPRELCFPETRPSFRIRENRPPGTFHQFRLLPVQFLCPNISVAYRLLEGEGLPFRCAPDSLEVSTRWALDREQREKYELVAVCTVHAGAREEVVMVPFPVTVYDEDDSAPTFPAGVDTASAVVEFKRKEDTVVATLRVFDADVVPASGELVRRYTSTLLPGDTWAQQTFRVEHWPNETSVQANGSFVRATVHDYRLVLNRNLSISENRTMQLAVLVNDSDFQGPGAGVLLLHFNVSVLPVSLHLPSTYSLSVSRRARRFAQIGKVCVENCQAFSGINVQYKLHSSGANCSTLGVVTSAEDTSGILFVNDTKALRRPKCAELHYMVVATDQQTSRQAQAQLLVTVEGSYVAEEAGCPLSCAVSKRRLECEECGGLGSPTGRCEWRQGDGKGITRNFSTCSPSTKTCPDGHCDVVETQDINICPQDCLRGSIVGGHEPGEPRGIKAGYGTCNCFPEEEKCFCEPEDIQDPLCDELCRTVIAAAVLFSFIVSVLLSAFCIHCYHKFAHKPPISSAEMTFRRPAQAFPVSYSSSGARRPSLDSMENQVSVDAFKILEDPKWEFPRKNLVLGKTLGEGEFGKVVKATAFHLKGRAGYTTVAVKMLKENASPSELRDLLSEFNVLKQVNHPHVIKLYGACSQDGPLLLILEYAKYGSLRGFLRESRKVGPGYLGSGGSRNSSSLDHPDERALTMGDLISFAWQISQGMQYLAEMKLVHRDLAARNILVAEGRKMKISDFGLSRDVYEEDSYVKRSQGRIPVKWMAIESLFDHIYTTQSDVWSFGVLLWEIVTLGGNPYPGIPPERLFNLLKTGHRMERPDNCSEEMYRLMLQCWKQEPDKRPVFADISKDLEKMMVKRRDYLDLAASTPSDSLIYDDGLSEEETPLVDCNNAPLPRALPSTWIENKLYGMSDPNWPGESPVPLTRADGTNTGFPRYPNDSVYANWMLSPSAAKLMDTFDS
Excerpt: as §1, §3

In test [13] the target is T2, Abl(Q252H). Description: KinomeScan competition binding assay. On the set-up: purchased DiscoveRx Corporation (KinomeScan service).
Excerpt: as §1, §3

Test [14] addresses Ret (Homo sapiens, UniProt P07949). Description: KinomeScan competition binding assay. On the set-up: purchased DiscoveRx Corporation (KinomeScan service).
Excerpt: as §1, §3

The target in test [15] is T3, Abl (T315I). Description: KinomeScan competition binding assay. Also on record: purchased DiscoveRx Corporation (KinomeScan service).
Excerpt: as §1, §3

Test [16] addresses Ret (V804M) (Homo sapiens, UniProt P07949, V804M). Kind of test: KinomeScan competition binding assay. Also on record: purchased DiscoveRx Corporation (KinomeScan service).
Excerpt: as §1, §3

The target of test [17] is Wee1 (Homo sapiens, UniProt P30291). Kind of test: KinomeScan competition binding assay. Also on record: purchased DiscoveRx Corporation (KinomeScan service).
Excerpt: as §1, §3

Test [18] deals with T4, Abl(M351T). Kind of test: KinomeScan competition binding assay. On the set-up: purchased DiscoveRx Corporation (KinomeScan service).
Excerpt: as §1, §3

The target in test [19] is c-Kit (D816H) (Homo sapiens, UniProt P10721, D816H). Description: KinomeScan competition binding assay. Also on record: purchased DiscoveRx Corporation (KinomeScan service).
c-Kit (D816H), sequence (P10721 26-976 D816H): as the sequence (P10721 26-976 D816V) above, with V791H counted along it
Excerpt: as §1, §3

In test [20] the target is Stk10 (Homo sapiens, UniProt O94804). Description: KinomeScan competition binding assay. Also on record: purchased DiscoveRx Corporation (KinomeScan service).
Stk10, sequence (O94804 whole entry): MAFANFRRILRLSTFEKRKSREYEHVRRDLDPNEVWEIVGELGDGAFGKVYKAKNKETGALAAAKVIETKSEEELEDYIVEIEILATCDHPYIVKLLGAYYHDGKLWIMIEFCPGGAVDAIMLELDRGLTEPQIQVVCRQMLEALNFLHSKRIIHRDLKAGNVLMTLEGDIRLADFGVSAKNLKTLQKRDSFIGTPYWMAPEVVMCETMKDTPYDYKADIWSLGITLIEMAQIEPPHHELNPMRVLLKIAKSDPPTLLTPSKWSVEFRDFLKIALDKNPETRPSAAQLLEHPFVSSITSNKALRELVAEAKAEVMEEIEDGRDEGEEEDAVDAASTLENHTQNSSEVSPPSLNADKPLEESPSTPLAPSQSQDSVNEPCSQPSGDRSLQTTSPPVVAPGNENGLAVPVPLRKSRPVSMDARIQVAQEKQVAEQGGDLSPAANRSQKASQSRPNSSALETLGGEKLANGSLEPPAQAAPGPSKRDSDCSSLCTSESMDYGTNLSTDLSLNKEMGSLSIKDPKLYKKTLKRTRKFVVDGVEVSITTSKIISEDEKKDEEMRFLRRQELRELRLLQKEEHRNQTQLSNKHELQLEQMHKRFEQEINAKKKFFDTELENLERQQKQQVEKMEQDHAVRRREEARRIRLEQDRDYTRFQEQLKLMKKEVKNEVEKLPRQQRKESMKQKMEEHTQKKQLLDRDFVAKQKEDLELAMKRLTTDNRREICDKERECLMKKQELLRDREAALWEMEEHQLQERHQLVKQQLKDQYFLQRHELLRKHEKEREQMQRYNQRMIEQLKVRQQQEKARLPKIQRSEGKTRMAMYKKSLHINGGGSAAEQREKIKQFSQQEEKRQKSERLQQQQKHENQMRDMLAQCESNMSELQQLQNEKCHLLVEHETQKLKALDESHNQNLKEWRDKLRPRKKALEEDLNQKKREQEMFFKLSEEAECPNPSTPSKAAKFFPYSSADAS
Excerpt: as §1, §3

The target in test [21] is T5, Abl(Y253F). Kind of test: KinomeScan competition binding assay. Also on record: purchased DiscoveRx Corporation (KinomeScan service).
Excerpt: as §1, §3

For test [22], the target named is Yes (Homo sapiens, UniProt P07947). Kind of test: KinomeScan competition binding assay. Also on record: purchased DiscoveRx Corporation (KinomeScan service).
Yes, sequence (P07947 whole entry): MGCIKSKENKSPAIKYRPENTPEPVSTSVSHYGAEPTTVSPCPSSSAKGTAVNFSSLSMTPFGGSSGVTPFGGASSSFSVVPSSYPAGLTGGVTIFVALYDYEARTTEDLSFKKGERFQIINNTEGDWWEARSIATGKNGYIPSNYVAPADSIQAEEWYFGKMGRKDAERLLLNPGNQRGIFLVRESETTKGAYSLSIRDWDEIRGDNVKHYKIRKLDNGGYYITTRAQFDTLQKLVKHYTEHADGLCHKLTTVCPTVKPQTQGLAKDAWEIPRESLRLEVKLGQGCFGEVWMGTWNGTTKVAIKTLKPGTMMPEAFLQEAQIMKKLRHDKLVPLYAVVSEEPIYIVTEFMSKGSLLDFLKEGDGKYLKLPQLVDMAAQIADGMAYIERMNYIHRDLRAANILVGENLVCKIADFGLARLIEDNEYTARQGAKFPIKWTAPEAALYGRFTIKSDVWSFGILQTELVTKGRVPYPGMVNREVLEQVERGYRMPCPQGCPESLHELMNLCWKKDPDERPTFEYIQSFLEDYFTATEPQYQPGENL
Excerpt: as §1, §3

Flt4, sequence (P35916 25-1363): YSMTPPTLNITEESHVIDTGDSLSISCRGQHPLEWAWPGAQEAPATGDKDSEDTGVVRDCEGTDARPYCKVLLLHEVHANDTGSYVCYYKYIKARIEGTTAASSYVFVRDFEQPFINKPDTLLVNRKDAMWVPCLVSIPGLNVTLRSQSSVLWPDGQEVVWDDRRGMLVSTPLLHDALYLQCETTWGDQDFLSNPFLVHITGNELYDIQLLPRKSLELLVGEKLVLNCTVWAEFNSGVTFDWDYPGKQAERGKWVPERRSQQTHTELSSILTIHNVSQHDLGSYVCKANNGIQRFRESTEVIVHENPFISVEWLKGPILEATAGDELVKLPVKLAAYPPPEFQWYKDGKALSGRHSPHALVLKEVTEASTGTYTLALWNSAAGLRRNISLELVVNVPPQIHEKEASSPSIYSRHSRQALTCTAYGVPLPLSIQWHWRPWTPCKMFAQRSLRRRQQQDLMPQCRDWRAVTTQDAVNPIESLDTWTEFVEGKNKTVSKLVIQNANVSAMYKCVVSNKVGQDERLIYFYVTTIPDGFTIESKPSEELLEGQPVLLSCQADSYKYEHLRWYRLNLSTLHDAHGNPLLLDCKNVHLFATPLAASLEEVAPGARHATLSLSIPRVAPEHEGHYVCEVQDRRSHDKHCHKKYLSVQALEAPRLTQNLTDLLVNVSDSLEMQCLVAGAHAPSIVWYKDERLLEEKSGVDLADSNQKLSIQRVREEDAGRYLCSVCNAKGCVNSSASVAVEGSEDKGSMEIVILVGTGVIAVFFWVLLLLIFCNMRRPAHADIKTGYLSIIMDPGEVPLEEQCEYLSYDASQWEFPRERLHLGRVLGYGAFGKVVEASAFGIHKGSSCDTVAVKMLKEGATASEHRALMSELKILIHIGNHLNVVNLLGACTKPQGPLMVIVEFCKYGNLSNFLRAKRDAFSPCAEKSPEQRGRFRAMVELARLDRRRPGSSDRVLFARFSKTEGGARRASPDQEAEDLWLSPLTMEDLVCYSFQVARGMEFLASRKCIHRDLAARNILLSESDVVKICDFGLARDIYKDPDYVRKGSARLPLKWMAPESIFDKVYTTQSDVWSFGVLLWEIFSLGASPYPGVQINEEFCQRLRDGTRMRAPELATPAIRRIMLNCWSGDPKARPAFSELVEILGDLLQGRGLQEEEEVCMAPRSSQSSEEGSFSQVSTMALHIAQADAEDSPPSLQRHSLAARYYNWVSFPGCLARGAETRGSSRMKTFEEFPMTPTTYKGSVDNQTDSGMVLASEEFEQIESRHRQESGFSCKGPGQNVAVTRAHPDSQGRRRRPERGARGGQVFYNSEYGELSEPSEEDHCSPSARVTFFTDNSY
Ret (V804M), sequence (P07949 29-1114 V804M): as the sequence (P07949 29-1114 V804L) above, with L776M counted along it
Ret, sequence (P07949 29-1114): as the sequence (P07949 29-1114 V804L) above, with L776V counted along it

Broadly, the IC50 is the concentration that gives 50% inhibition. The Kd is the free concentration of one partner at which half of the binding sites on the other are occupied at equilibrium, for simple one-to-one binding. For `Nc1nc(Nc2ccc3c(c2)CC[C@@H](N2CCCC2)CC3)nn1-c1cc2c(nn1)-c1ccccc1CCC2` [Compound A, 1-(6,7-dihydro-5H-benzo[6,7]cyclohepta[1,2-c]pyridazine-3-yl)-N^3-(7-(S)-(pyrrolidin-1-yl)-6,7,8,9-tetrahydro-5H-benzo[7]annulene-2-yl)-1H-1,2,4-triazole-3,5-diamine], the IC50 in test [1] worked out at 22 nM; in test [2], 413 nM; in [3], 16 nM; in test [4] it was 4 nM; in test [5], 32 nM; in test [6] it was 26 nM. The Kd came out at 57 nM in test [7]; 50 nM in test [8]; 460 nM in test [9]; 11.2 nM in [10]; 10.2 nM in test [11]; 90 nM in test [12]. In addition, the Kd in test [13] amounted to 112 nM; in test [14], 73 nM; in [15], 10 nM; in test [16], 72 nM; in test [17], 17 nM; in [18], 104 nM. Moreover, the Kd in [19] is 63 nM; in test [20], 9.2 nM; in test [21] it was 18 nM; in test [22], 810 nM.
